Patent US20240217951A1, “PCSK9 INHIBITORS AND METHODS OF USE THEREOF” (AstraZeneca AB, priority 2022, published 2024)

What was measured:
PCSK9 [1] = biological target: T1, PCSK9 (Homo sapiens, UniProt Q8NBP7, G670E/V474I); test: Assay 3 - PCSK9 LDL-C uptake assay in HepG2 cells; type: cell-based; set-up: TEV cleavage site (C); His6 (C); host or cells: added to HepG2 cells (ATCC #HB-8065); settings: 125 nM PCSK9, pHrodo Red-LDL, read-out: Assay 3 LDL uptake potency
From the text: Assay 3—PCSK9 LDL-C Uptake Assay
This assay measures for PCSK9 antagonist activity based on a test compound's capacity to restore LDL-C-uptake in HepG2 cells. The assay is based on exogenous PCSK9 and LDL-C complexed with a pH-sensitive dye. Outside the cells, at neutral pH, the pHrodo Red-LDL is dimly fluorescent but upon LDLR mediated endocytosis it fluoresces brightly. PCSK9 traffics the LDLR to intracellular degradation and reduces uptake of LDL-C. Inhibition of PCSK9 reduces LDLR degradation and the increased LDL-C uptake is quantified by fluorescence microscopy.
Preparation of Assay Reagents
Cell medium: MEM supplemented with 10% FBS, 1×NEAA and Sodium Pyruvate Assay medium: OptiMem supplemented with penicillin/streptomycin
Cells: HepG2 (ATCC #HB-8065)
Step by Step Protocol for Running the Assay:
• 1. Cryopreserved HepG2 cells were thawed in assay medium and centrifuged for 5 min at 250 g. Supernatant was discarded and the cell pellet resuspended in cell medium and counted with a Nucleocounter. Cells were again centrifuged 5 min at 250 g and the pellet was resuspended to 500000 cells/mL in assay medium. • 2. 20 μL of above cell mix was dispensed into black pclear TC treated 384 well plates with Multidrop Combi and left at room temperature for 20 minutes. • 3. Plates were incubated at 37° C., 5% CO2 for 24 h
• 1. Test compounds were prepared in concentration response in DMSO with a half-log dilution factor in DMSO in Echo 384 LDV plates starting at 10 mM. • 2. 30 nL of above test compounds were dispensed with Echo 655 to cells for a top concentration of 10 μM • 3. 10 μL PCSK9 in assay medium was dispensed to cells with Multidrop Combi for 125 nM final concentration in the wells. • 4. Plates were incubated at 37° C., 5% CO2 for 24 h
• 1. 10 μL pHrodo Red-LDL in assay medium was dispensed to cells with Multidrop Combi for 6 μg/mL • 2. Plates were incubated at 37° C., 5% CO2 and imaged with the Incucyte S3 after 4 h and 24 h
Image data was processed using Incucyte 2021, a software to identify cells and red fluorescent intensity. Screener was used to further process data. Data was normalized as % effect of the signal between median values of the on-plate controls of DMSO and 100 nM Evolocumab according to the formula % effect=−100*(x−DMSO)/(Evolocumab−DMSO) where x equals the measured signal. Concentration response data of the normalized values were fitted using a four-parameter logistic fit.

[2] = biological target: GSK3β (Glycogen synthase kinase-3 beta) (Homo sapiens, UniProt P49841); test: Assay 6 - GSK3β assay (ThermoFisher Z-Lyte); type: biochemical; settings: geometric mean; ATP Conc: 10 μM; read-out: Assay 6 (GSK3β FRET-Z-Lyte CR) GMean IC50 (μM) ATP Conc: 10
Protocol: Assay 6—GSK3β Assay (ThermoFisher Assay)
This assay measures the activity of the compounds at GSK3β (Glycogen synthase kinase-3 beta).
The test compounds were screened in 1% DMSO (final) in the well. For 10 point titrations, 3-fold serial dilutions are conducted from the starting concentration of 10 μM.
Bar-coded Corning, low volume NBS, black 384-well plate • 1. 2.5 μL—4× Test Compound or 100 nL 100× plus 2.4 μL kinase buffer • 2. 5 μL—2× Peptide/Kinase Mixture • 3. 2.5 μL—4×ATP Solution • 4. 30-second plate shake • 5. 60-minute Kinase Reaction incubation at room temperature • 6. 5 μL—Development Reagent Solution • 7. 30-second plate shake • 8. 60-minute Development Reaction incubation at room temperature • 9. Read on fluorescence plate reader and analyse the data
In step 2, the 2×GSK3β (GSK3 beta)/Ser/Thr (Glycogen synthase kinase-3 beta/Serine/Threonine) 09 mixture is prepared in 50 mM HEPES (4-(2-hydroxyethyl)-1-piperazineethanesulfonic acid) pH 7.5, 0.01% BRIJ-35, 10 mM MgCl2, 1 mM EGTA (egtazic acid). The final 10 μL Kinase Reaction consists of 0.22-0.92 ng GSK3β (GSK3 beta) and 2 μM Ser/Thr 09 in 50 mM HEPES pH 7.5, 0.01% BRIJ-35, 10 mM MgCl2, 1 mM EGTA.
In step 3 the ATP Solution is diluted to a 4× working concentration in Kinase Buffer (50 mM HEPES pH 7.5, 0.01% BRIJ-35, 10 mM MgCl2, 1 mM EGTA).
In Step 6 the Development Reagent is diluted 1:512 in Development Buffer (10× Novel PKC Lipid Mix: 2 mg/mL Phosphatidyl Serine, 0.2 mg/mL DAG in 20 mM HEPES, pH 7.4, 0.3% CHAPS).
SelectScreen® Kinase Profiling Service uses XLfit from IDBS. The dose response curve is curve fit to model number 205 (sigmoidal dose-response model).

PCSK9 [3] = biological target: T1, PCSK9; test: biochemical
[4] = biological target: T2, potassium ion channel hERG (human Ether-á-go-go-Related Gene) (Homo sapiens, UniProt Q12809); test: Assay 5 - hERG assay (SyncroPatch 384PE patch clamp, CHO cells); type: cell-based; settings: geometric mean; CHO cells over-expressing hERG; read-out: Assay 5 (hERG Hu CHO IF EPh CR-Syncro) GMean IC50
T2 construct: expressed in transfected cells; host or cells: Chinese hamster ovary K1 (CHO)
Protocol: Assay 5—hERG Assay (Human Ether-á-go-go-Related Gene)
This assay (human Ether-á-go-go-Related Gene) measures activity of the compounds at the potassium ion channel hERG (human Ether-á-go-go-Related Gene).
Experiments were performed on the SyncroPatch 384PE high throughput patch clamp platform at room temperature and medium resistance chips with 4 patch holes per site. Chinese hamster ovary K1 (CHO) cell lines over-expressing the ion channel of choice (hERG) were used in assay-ready format and kept in liquid nitrogen or were used from live culture. Cells were either thawed and diluted in HBSS or were detached from flasks and resuspended in HBSS. HBSS comprised 140 mM NaCl, 4 mM KCl, 10 mM HEPES and 5 mM Glucose (pH7.4). The internal patch clamp solution was KF 120 mM, KCl 20 mM, HEPES 10 mM, EGTA 10 mM, and 25 PM Escin (pH 7.2). After the sealing process was complete, the external solution was exchanged for external patch clamp solution comprising NaCl 80 mM, KCl 4 mM, HEPES 10 mM, CaCl2 2 mM, MgCl2 1 mM, glucose 5 mM, and NMDG 60 mM (pH 7.4). All solutions were stored at room temperature, except Escin, which was stored at 4° C. All test compounds were dispensed in greiner-bio 384 well plates and tested in a 6 point cumulative assay (final DMSO concentration 0.33%). Only wells that passed previously agreed acceptance criteria for this platform were used in this analysis (30 MegaOhm seal resistance, Z prime >0.4 and current size >0.2 nA).

GSK3β (Glycogen synthase kinase-3 beta), sequence (P49841 whole entry): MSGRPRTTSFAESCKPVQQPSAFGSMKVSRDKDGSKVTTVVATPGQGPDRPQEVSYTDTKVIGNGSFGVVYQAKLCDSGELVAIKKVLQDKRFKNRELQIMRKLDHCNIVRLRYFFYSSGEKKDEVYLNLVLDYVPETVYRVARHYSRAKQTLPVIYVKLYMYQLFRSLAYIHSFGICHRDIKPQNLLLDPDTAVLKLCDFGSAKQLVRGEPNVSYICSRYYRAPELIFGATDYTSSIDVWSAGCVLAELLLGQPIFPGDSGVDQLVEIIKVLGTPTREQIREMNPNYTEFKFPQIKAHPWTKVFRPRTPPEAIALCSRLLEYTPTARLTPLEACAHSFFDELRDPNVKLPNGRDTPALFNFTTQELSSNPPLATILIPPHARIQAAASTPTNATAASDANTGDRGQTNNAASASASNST
T2 sequence (Q12809 whole entry): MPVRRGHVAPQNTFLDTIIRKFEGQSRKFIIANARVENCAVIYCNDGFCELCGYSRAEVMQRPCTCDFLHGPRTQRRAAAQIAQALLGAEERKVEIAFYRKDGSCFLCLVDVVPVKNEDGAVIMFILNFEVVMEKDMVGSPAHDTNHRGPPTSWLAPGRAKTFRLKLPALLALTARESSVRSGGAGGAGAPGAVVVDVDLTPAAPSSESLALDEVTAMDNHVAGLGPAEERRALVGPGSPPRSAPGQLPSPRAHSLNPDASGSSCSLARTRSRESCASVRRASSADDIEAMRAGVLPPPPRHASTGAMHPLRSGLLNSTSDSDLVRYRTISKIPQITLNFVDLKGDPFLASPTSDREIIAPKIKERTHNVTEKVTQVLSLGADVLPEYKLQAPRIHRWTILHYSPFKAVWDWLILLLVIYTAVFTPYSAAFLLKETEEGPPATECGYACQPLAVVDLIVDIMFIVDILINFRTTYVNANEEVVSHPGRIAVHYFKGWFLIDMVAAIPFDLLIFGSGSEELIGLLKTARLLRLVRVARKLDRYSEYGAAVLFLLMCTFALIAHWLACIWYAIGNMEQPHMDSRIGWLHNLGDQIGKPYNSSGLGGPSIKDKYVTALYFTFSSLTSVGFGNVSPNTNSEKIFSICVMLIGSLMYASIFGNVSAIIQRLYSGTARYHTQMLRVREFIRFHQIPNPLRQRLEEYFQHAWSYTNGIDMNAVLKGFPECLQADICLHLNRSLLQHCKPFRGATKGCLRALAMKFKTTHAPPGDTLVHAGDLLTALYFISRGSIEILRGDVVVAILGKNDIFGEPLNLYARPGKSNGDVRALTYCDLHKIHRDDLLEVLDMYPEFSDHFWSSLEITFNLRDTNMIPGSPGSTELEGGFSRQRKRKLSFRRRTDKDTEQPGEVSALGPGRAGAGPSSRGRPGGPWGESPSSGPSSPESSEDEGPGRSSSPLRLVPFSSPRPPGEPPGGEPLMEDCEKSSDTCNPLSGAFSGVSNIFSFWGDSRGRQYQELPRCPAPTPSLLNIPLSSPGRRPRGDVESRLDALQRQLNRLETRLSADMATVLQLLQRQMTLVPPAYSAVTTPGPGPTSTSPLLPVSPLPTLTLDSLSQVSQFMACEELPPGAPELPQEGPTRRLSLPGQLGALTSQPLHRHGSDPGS
T1 sequence (Q8NBP7 with tags, fused parts or gaps V474I/G670E): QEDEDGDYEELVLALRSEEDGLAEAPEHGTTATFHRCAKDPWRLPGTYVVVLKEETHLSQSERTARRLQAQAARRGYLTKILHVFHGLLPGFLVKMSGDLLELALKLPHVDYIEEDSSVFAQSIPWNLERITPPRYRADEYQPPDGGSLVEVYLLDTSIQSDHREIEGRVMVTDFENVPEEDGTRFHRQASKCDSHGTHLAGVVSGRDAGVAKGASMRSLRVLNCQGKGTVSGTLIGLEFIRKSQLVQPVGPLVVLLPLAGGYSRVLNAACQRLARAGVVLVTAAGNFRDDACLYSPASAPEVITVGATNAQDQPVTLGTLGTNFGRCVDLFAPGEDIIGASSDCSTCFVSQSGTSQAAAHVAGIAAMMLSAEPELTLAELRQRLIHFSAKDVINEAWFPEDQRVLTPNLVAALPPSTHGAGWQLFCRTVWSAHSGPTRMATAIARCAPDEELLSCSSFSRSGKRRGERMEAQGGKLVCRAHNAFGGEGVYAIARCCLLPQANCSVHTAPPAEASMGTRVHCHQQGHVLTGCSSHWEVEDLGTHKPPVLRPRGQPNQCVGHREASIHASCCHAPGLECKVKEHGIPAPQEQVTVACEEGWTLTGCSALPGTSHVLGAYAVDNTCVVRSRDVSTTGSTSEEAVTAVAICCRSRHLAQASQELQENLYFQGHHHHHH

Structure (SMILES)	EC50 (PCSK9 [1]) [µM]	IC50 [2] [µM]	IC50 (PCSK9 [3]) [µM]	IC50 [4] [µM]
Cc1cnc(N[C@H]2CC[C@H](Nc3ccc(-n4cc(-c5c[nH]nn5)ccc4=O)cn3)C2)cn1 [Example 209, 6′-(((1S,3S)-3-((5-Methylpyrazin-2-yl)amino)cyclopentyl)amino)-5-(1H-1,2,3-triazol-4-yl)-2H-[1,3′-bipyridin]-2-one]	0.2	> 10	0.0063	> 40.1
O=c1ccc2cccnc2n1-c1ccc(N[C@H]2CC[C@H](Nc3cnc(OC(F)F)cn3)C2)nc1 [Example 87, 1-(6-(((1S,3S)-3-((5-(Difluoromethoxy)pyrazin-2-yl)amino)cyclopentyl)amino)pyridin-3-yl)-1,8-naphthyridin-2 (1H)-one]	0.1	> 10	0.0092	18.1
O=c1ccc(-c2nnn[nH]2)cn1-c1ccc(N[C@H]2CC[C@H](Nc3cnc(OC(F)F)cn3)C2)nc1 [Example 178, 6′-(((1S,3S)-3-((5-(Difluoromethoxy)pyrazin-2-yl)amino)cyclopentyl)amino)-5-(1H-tetrazol-5-yl)-2H-[1,3′-bipyridin]-2-one]	0.1	> 10	0.01	> 40.1
O=c1ccc2cccnc2n1-c1ccc(N[C@H]2CC[C@H](Nc3cnc(Cl)cn3)C2)nc1 [Example 34, 1-(6-(((1S,3S)-3-((5-Chloropyrazin-2-yl)amino)cyclopentyl)amino)pyridin-3-yl)-1,8-naphthyridin-2 (1H)-one]	0.1	> 10	0.0051	15.4
Cc1cnc(N[C@H]2CC[C@H](Nc3ccc(-n4cc(-c5cn[nH]c5)ccc4=O)cn3)C2)cn1 [Example 207, 6′-(((1S,3S)-3-((5-Methylpyrazin-2-yl)amino)cyclopentyl)amino)-5-(1H-pyrazol-4-yl)-2H-[1,3′-bipyridin]-2-one]	0.4	> 10	0.0086	> 40.1
Cc1cnc(N[C@H]2CC[C@H](Nc3ccc(-n4cccc(-c5cn[nH]c5)c4=O)cn3)C2)cn1 [Example 204, 6′-(((1S,3S)-3-((5-Methylpyrazin-2-yl)amino)cyclopentyl)amino)-3-(1H-pyrazol-4-yl)-2H-[1,3′-bipyridin]-2-one]	0.4	> 10	0.0035	> 40.1
Cn1c(=O)n(-c2ccc(N[C@H]3CC[C@H](Nc4cnc(OC(F)F)cn4)C3)nc2)c2ncccc21 [Example 96, 3-(6-(((1S,3S)-3-((5-(Difluoromethoxy)pyrazin-2-yl)amino)cyclopentyl)amino)pyridin-3-yl)-1-methyl-1,3-dihydro-2H-imidazo[4,5-b]pyridin-2-one]	0.7	> 10	0.0073	12.2
Cn1c(=O)n(-c2ccc(N[C@H]3CC[C@H](Nc4cnc(C5CC5)cn4)C3)nc2)c2ncccc21 [Example 105, 3-(6-(((1S,3S)-3-((5-Cyclopropylpyrazin-2-yl)amino)cyclopentyl)amino)pyridin-3-yl)-1-methyl-1,3-dihydro-2H-imidazo[4,5-b]pyridin-2-one]	0.8	> 10	0.0064	20.4
O=c1c(Cl)cccn1-c1ccc(N[C@H]2CC[C@H](Nc3cnc(OC(F)F)cn3)C2)nc1 [Example 85, 3-Chloro-6′-(((1S,3S)-3-((5-(difluoromethoxy)pyrazin-2-yl)amino)cyclopentyl)amino)-2H-[1,3′-bipyridin]-2-one]	0.2	> 10	0.0043	5.6
Cc1cnc(N[C@H]2CC[C@H](Nc3ccc(-n4cccc(C(F)(F)F)c4=O)cn3)C2)cn1 [Example 147, 6′-(((1S,3S)-3-((5-Methylpyrazin-2-yl)amino)cyclopentyl)amino)-3-(trifluoromethyl)-2H-[1,3′-bipyridin]-2-one]	0.1	> 10	0.0052	16.6
O=c1ccc(-c2nnn[nH]2)cn1-c1ccc(N[C@H]2CC[C@H](Nc3cnc(Cl)cn3)C2)nc1 [Example 179, 6′-(((1S,3S)-3-((5-Chloropyrazin-2-yl)amino)cyclopentyl)amino)-5-(1H-tetrazol-5-yl)-2H-[1,3′-bipyridin]-2-one]	0.1	6.9	0.0047	–
COc1ccc(=O)n(-c2ccc(N[C@H]3CC[C@H](Nc4cnc(C)c(C)n4)C3)nc2)c1 [Example 15, 6′-(((1S,3S)-3-((5,6-Dimethylpyrazin-2-yl)amino)cyclopentyl)amino)-5-methoxy-2H-[1,3′-bipyridin]-2-one]	–	0.874	0.118	> 40
Cn1ccc2ncc(N[C@H]3CC[C@H](Nc4ccc(-n5ccccc5=O)cn4)C3)nc21 [Example 8, 6′-(((1S,3S)-3-((5-Methyl-5H-pyrrolo[2,3-b]pyrazin-3-yl)amino)cyclopentyl)amino)-2H-[1,3′-bipyridin]-2-one]	–	> 10	0.257	> 40
CN1C(=O)CN(c2ccc(N[C@H]3CC[C@H](Nc4cnc(Cl)cn4)C3)nc2)C1=O [Example 26, 1-(6-(((1S,3S)-3-((5-Chloropyrazin-2-yl)amino)cyclopentyl)amino)pyridin-3-yl)-3-methylimidazolidine-2,4-dione]	–	> 10	0.0243	14.3
